PubChem BioAssay AID1259342 (Broad Institute, 2017)
Active and inactive are the calls of the source.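 How the source made its calls: active means fitted half-maximal inhibitory concentration AC50 at most ten times the top concentration tested; inconclusive means flat fit with 30 to 70% inhibition, or unusable fit; inactive means AC50 above ten times the top concentration.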

What follows are compounds tested against E3 ubiquitin-protein ligase TRIM62 (Homo sapiens) (UniProt Q9BVG3) (assay: TRIM62 E3 ligase activity on CARD9 – biochemical, ubiquitin ELISA, AlphaLISA TUBE, CARD9-TRIM62 disruptor project, dose response (AID 1259342;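 on AC50: potency is for inhibitors that reduce CARD9 ubiquitylation signal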)). Conditions: TRIM62-mediated CARD9 ubiquitylation, AlphaLISA TUBE detection.
Chain of E3 ubiquitin-protein ligase TRIM62 (Homo sapiens) (Q9BVG3 whole entry, looked up): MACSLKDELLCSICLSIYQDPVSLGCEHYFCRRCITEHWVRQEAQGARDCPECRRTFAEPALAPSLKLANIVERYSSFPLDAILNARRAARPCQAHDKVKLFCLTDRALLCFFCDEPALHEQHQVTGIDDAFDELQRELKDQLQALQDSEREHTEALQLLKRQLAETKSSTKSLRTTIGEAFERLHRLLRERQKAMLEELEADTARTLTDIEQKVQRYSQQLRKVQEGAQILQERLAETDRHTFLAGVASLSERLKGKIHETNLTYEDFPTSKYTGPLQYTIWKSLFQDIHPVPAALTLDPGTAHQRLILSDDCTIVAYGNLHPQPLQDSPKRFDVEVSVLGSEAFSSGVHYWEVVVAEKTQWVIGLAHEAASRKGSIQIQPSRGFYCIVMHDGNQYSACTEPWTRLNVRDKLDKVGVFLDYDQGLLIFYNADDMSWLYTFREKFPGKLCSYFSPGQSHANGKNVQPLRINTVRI

Row | Structure (SMILES) | AC50
1 | C=CC(=O)N1CCCC2(CCN(CCN3CCCC3)C2=O)C1 (stereo unspecified) | 50.8 µM
2 | O=C(COC(=O)CCC(=O)c1cccs1)NCc1ccco1 | 16.6 µM
3 | O=C(CN1CCN(c2ccccc2O)CC1)NC(=O)NC1CCCC1 | > 160 µM (inactive)
4 | Nc1cc2c(cc1O)CCCC2 | 49.4 µM
5 | COc1ccc(N2CC3=C(N2)c2ccccc2CC3)cc1 | 54 µM
6 | O=C1CS/C(=N\N=C\c2ccco2)N1c1ccccc1 | 22.2 µM
7 | Nc1ccccc1Sc1nccc(C(F)(F)F)n1 | > 160 µM (inactive)
8 | O=C(O)C1Oc2cc3ccccc3cc2O1 | 3.02 µM
9 | O=C(Cc1cccs1)Nc1nnc(Cc2ccccc2)s1 | 41.2 µM
10 | CCc1nc(OCc2ccco2)c2sc3nc4c(cc3c2n1)COC(C)(C)C4 | > 160 µM (inactive)
11 | CCc1cc2c(=O)n(Cc3ccco3)c(SC)nc2s1 | > 160 µM (inactive)
12 | CCOc1cc2c(C#N)c(N3CCNCC3)nc(N)c2c(N)n1 | > 160 µM (inactive)
13 | O=[N+]([O-])c1ccc2nn(Cc3ccccc3)cc2c1 | > 160 µM (inactive)
14 | COc1ccc(-n2c(C)c3c(OC)cccc(=O)c3c2C)cc1 | 27.6 µM
15 | CC1Cc2ccccc2N1CC(=O)NC(=O)NC(C)(C)C (stereo unspecified) | > 160 µM (inactive)
16 | CCN(CCNC(=O)C1CCN(S(=O)(=O)c2c(C)noc2C)CC1)c1ccccc1 | > 160 µM (inactive)
17 | CCCN1CCc2nc(SCc3nc(-c4ccc(OC)cc4OC)oc3C)[nH]c(=O)c2C1 | > 160 µM (inactive)
18 | CC(=O)c1sc2nc(-c3ccco3)ccc2c1N | 24.5 µM
19 | Cc1ccc(-c2cc(C(=O)Nc3ccccn3)c3ccccc3n2)o1 | 60.9 µM
20 | O=C(NC1CC1)c1cc(-c2ccco2)nc2ccccc12 | 21.2 µM
21 | N#CCSc1nc2c(c(=O)n1Cc1ccco1)C1(CCCC1)Cc1ccccc1-2 | 57 µM
22 | O=C(O)Cc1c[nH]c2cccc(O)c12 | 0.921 µM
23 | O=C(Nc1nc(-c2ccco2)c(-c2ccco2)s1)c1ccc(F)cc1F | > 160 µM (inactive)

Row | Structure (SMILES) | AC50
24 | CC1(C)Cc2ccccc2-c2nc(-c3ccccc3)oc(=O)c21 | 6.32 µM
25 | COCCn1c(C)cc(-c2csc(N)n2)c1C | 68.3 µM
26 | O=S(=O)(Nc1nc2ccc(S(=O)(=O)N3CCCCC3)cc2s1)c1ccccc1 | 42.2 µM
27 | CC1CCN(c2nc(-c3ccco3)c3c(c2C#N)CC(C)(C)OC3)CC1 | 17.6 µM
28 | NC(=O)C1(N2CCCCC2)CCN(c2ncc(NC(=O)c3cccs3)cc2C(=O)O)CC1 | 35.8 µM
29 | O=C(O)c1ccc2nc(-c3ccco3)c(-c3ccco3)nc2c1 | 11.8 µM
30 | Cc1oc(CSCc2cc(C(=O)O)c(C)o2)cc1C(=O)O | > 160 µM (inactive)
31 | COc1ccc(S(=O)(=O)N2CCN(C(=O)c3cc4c(s3)CCC4)CC2)cc1 | 10.2 µM
32 | Cc1c(C(=O)OCC2CCCO2)[nH]c2c1C(=O)CC(c1ccco1)C2 (stereo unspecified) | 38.1 µM
33 | NC(=O)C1(N2CCCCC2)CCN(c2ncc(NC(=O)c3ccc(Cl)cc3)cc2C(=O)O)CC1 | 18.2 µM
34 | Cc1ccc(-c2nc(C)sc2CC(=O)NCc2ccco2)cc1 | 56.6 µM
35 | CCOC(=O)c1[nH]c(Cc2[nH]c(C(=O)OCC)c(C)c2C)c(C)c1C | > 160 µM (inactive)
36 | CC(=O)Nc1ccc(Nc2nc(-c3nnc(-c4cccc(C)c4)o3)nc3ccccc23)cc1 | 19 µM
37 | O=c1oc(/C=C/c2ccc([N+](=O)[O-])s2)nc2ccccc12 | > 160 µM (inactive)
38 | COc1ccc(NC(=O)CN(C)C(=O)c2cc(-c3ccco3)nc3ccccc23)cc1 | 16.6 µM
39 | O=C(Nc1nccs1)c1cc(-c2ccccn2)nc2c(Cl)cccc12 | 75.4 µM
40 | O=C(COC(=O)c1cc(-c2cccs2)nc2ccccc12)NCc1ccco1 | 26.2 µM
41 | Cc1noc(CN(C)C(=O)c2cc(-c3ccco3)nc3c(C)c(Cl)ccc23)n1 | 49.2 µM
42 | O=C(O)c1cc(-c2ccc(-c3ccc(F)cc3)o2)nc2ccccc12 | 31.4 µM
43 | Cc1cccc(NC(=O)Cc2coc3ccc4ccccc4c23)n1 | 70 µM
44 | CCC1c2ccc(C)n2CCN1C(=O)Nc1ccccc1C(=O)OC (stereo unspecified) | 72.5 µM
45 | O=C(Nc1nc(-c2ccco2)c(-c2ccco2)s1)C1CCC1 | 6.56 µM

Same assay, conditions: TRIM62-mediated CARD9 ubiquitylation, AlphaLISA TUBE detection; at 38 µM (top of the series)

Row | Structure (SMILES) | activity change, negative = inhibition
46 | O=C(Nc1nc(-c2ccccn2)cs1)c1cccc(-n2cnnn2)c1 | inactive
47 | CC(=O)c1ccc(NC(=O)c2noc3c2CCC3)cc1 | inactive
48 | Cc1ccc(-c2nnc(-c3nc(Nc4nc5ccccc5s4)c4ccccc4n3)o2)cc1 | inactive
49 | CCCCCn1c(NC(=O)c2ccco2)c(C(=O)OCC)c2nc3ccccc3nc21 | inactive
50 | O=C(NCCc1ccco1)c1ccc(OCc2cn3ccccc3n2)cc1 | inactive

Same assay, conditions: TRIM62-mediated CARD9 ubiquitylation, AlphaLISA TUBE detection; at 80 µM (top of the series)

Row | Structure (SMILES) | activity change, negative = inhibition
51 | Clc1ccc2nc(CN3CCCCCC3)cn2c1 | inactive
52 | COCC(=O)N1CCCC2(CCN(CCN3CCCC3)C2=O)C1 (stereo unspecified) | inactive
53 | COCCC(=O)N1CCCC2(CCN(CCN3CCCC3)C2=O)C1 (stereo unspecified) | inactive
54 | O=C(Nc1ccc2oc(-c3ccncc3)nc2c1)c1ccc2c(c1)OCCO2 | inactive
55 | Cc1[nH]c2ccc(Cl)cc2c(=O)c1CN1CCCC1 | inactive
56 | CN(c1ccccc1C(=O)NCc1ccco1)S(C)(=O)=O | inactive
57 | CCOc1ccc(CNc2nc(-c3nnc(-c4ccc(F)cc4)o3)nc3ccccc23)cc1 | inactive
58 | CCCN1CCCn2nc(CNC(=O)[C@H]3CC[C@@H](N)C3)cc2C1 | inactive
59 | O=C(CCc1nc(-c2ccccc2)no1)NCC1CNCCOC1 (stereo unspecified) | inactive
60 | NC(=O)c1ccc(CN2C(=O)C3(CCNCC3)Nc3ccccc32)cc1 | inactive
61 | N#Cc1c(-c2ccco2)cc(-c2ccccn2)nc1N | inactive
62 | N#Cc1c2ccc(OCC(=O)NCc3ccco3)cc2n2ccccc12 | inactive
63 | O=C(Nc1ccc2c(c1)nc1n2CCN(C2CCCCC2)C1)c1ccco1 | inactive
64 | Cc1cc(C(=O)NCc2ccco2)on1 | inactive
65 | CN(Cc1ccco1)S(=O)(=O)c1nnc(NC(=O)c2ccccc2)s1 | inactive
66 | O=C1CC2(CCN(C(=O)Nc3ccccc3)CC2)CN1Cc1ccc(Cl)cc1 | inactive
67 | O=C(Nc1ncccc1O)c1ccc(OCC2CCCO2)cc1 (stereo unspecified) | inactive
68 | CC(CCc1ccco1)N(C)S(=O)(=O)c1ccc2[nH]c(=O)ccc2c1 (stereo unspecified) | inactive
69 | COCCCNC(=O)C1CCN(c2ccc(N3CCOCC3)nn2)CC1 | inactive
70 | COc1ccc(N2Cc3cccc(C(=O)NC(C)CCc4ccco4)c3C2=O)cc1 (stereo unspecified) | inactive
71 | N#CNc1nc(O)cc(=O)[nH]1 | inactive
72 | Cc1ccc(C(=O)Nc2ccc(N3CCC(C(N)=O)(N4CCCCC4)CC3)c(C(=O)O)c2)cc1 | inactive
73 | CN1C(=O)C(c2ccccc2[N+](=O)[O-])C(=O)c2ccccc21 (stereo unspecified) | inactive
74 | O=C(N/N=C/C=C/c1ccco1)c1cncc(Br)c1 | inactive
75 | CCOC(=O)c1ccc(-c2ccc(C3CC(=O)Nc4cc5c(cc43)OCCO5)o2)cc1 (stereo unspecified) | inactive
76 | C[n+]1cccc2cccc(O)c21 | inactive

Row | Structure (SMILES) | activity change, negative = inhibition
77 | Cc1scc(C(=O)NCc2ccco2)c1-c1ccccc1 | inactive
78 | Cc1ncnc(N2CCC(c3nccn3Cc3cccnc3)CC2)c1C | inactive
79 | Cc1cnc(C)c(N2CCN(C(=O)[C@H]3CC[C@@H](N)C3)CC2)n1 | inactive
80 | Cc1ccc2cc(CN(Cc3ccco3)S(C)(=O)=O)c(=O)[nH]c2c1 | inactive
81 | COc1ccc(S(=O)(=O)c2ccccc2)cc1NS(=O)(=O)c1cccc(C(=O)O)c1 | inactive
82 | CC(C(=O)N1CCCC1)N1CCN(c2ccccc2O)CC1 (stereo unspecified) | inactive
83 | NC(=O)C1(N2CCCCC2)CCN(c2ccc(NC(=O)c3cccc(Cl)c3)cc2C(=O)O)CC1 | inactive
84 | Nc1ccc2ncccc2c1N | inactive
85 | CCc1nccn1CCC(=O)N1C[C@H](CO)C[C@H](CN2CCCC2)C1 | inactive
86 | O=C(Nc1ccc2oc(-c3cccnc3)nc2c1)c1ccc2c(c1)OCCO2 | inactive
87 | O=C(O)c1cc(-c2ccco2)nc2ccccc12 | inactive
88 | O=C(NC1(C(F)(F)F)Oc2ccc(Cl)cc2O1)N1CCC2(CC1)OCCO2 (stereo unspecified) | inactive
89 | CCNc1ncc(C(=O)NCCc2nc3c(s2)CCCC3)cn1 | inactive
90 | CCN1CCN(C(=O)c2cc(-c3ccco3)nc3ccccc23)CC1 | inactive
91 | Cn1ncc2c(NNC(=O)c3cc(O)cc(O)c3)ncnc21 | inactive
92 | CS(=O)(=O)N1CCN(c2ccc([N+](=O)[O-])c(SCc3ccco3)c2)CC1 | inactive
93 | CCSCCNC(=O)c1cncc(Br)c1 | inactive
94 | CCOC(=O)/C=C/S(=O)(=O)c1ccc(NC(C)=O)cc1 | inactive
95 | CCOc1ccccc1NC(=O)N1CCCC(c2nccn2CCOC)C1 (stereo unspecified) | inactive
96 | CN(C)C(CN=C1NS(=O)(=O)c2ccccc21)c1ccco1 (stereo unspecified) | inactive
97 | N#Cc1c2c(c(NCc3ccco3)n3c1nc1ccccc13)CCC2 | inactive
98 | Cc1ccc(C2CC(=O)C3=C(C2)Nc2ccccc2NC3c2cccnc2)cc1 (stereo unspecified) | inactive
99 | CN(C)c1ccc(CN2C[C@H]3CC[C@@H]2CN(C(=O)c2ccncc2)C3)cn1 | inactive
100 | O=C(NCc1ccco1)C1CCCN(S(=O)(=O)c2cccc3nonc23)C1 (stereo unspecified) | inactive
101 | O=C(NCCc1ccccc1)c1cc2cccnc2n(Cc2ccccc2)c1=O | inactive
